Tested on: athletes
Conditions: about half the dose provided from other preparations
From the text: (The actual dose depended on the athlete.)
The performance evaluations were made by experienced coaches, overlooking standard athletic tasks.

creatine α-ketoglutarate [product of the invention]
time after delivery to peak performance: ten

Reference: patent US8624053B2, “Method to produce a stable dry ionic-bonded creatine α ketoglutarate of high oral absorbability” (priority 2012, dated 2014)
